Assay: mn = molality of the nth substance listed, in mol/kg
Conditions: for viscosity / mass density: 101.3 kPa, Liquid; for viscosity: Capillary tube (Ostwald / Ubbelohde) method; for surface tension liquid-gas: Pendant drop shape

NC(CO)CO [2-amino-1,3-propanediol] + O
Conditions	mass density, 293.2 K [kg/m3]	mass density, 300.2 K [kg/m3]	mass density, 307.2 K [kg/m3]	mass density, 313.2 K [kg/m3]	surface tension liquid-gas, 298.2 K [mN/m]	surface tension liquid-gas, 313.2 K [mN/m]	viscosity, 293.2 K [mPa·s]	viscosity, 300.2 K [mPa·s]	viscosity, 307.2 K [mPa·s]	viscosity, 313.2 K [mPa·s]
m1 = 0.953	1012.63	1010.28	1008.07	1005.49	–	–	1.244	1.056	0.896	0.8
m1 = 0.959	–	–	–	–	71.7	69.4	–	–	–	–
m1 = 2.052	1026.97	1024.18	1021.61	1019.22	–	–	1.606	1.335	1.118	0.983
m1 = 2.151	–	–	–	–	71.3	69	–	–	–	–
m1 = 3.459	–	–	–	–	70.8	68.6	–	–	–	–
m1 = 3.464	1041.67	1038.8	1036.8	1033.49	–	–	2.157	1.769	1.458	1.275
m1 = 4.693	1052.77	1050.01	1047.38	1044.53	–	–	2.784	2.261	1.845	1.588
m1 = 4.745	–	–	–	–	70.4	68.3	–	–	–	–

— the NIST ThermoML archive (doi:10.1021/je4008298)
